Results on 23 compounds are retold here after PubChem BioAssay (NCI).

Among the test systems are A549 NSCLC; HOP-92 NSCLC; HT29 colon; NCI-H460 lung; OVCAR-8 ovarian; SF-268 CNS; SK-OV-3 ovarian; U251 CNS; DU-145 prostate; MDA-N; HS 578T breast.
Experiment in all cases: NCI tumour cell line growth inhibition, 48 h

“And” between values parts separate entries of the source, which are not always exact repeats. Equal entries are not always repeated.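 Dose response: 5 concentrations. Exposure: 48 h. Format: 96-well plates. Endpoint: linear interpolation; highest concentration if not reached. GI50 is the concentration that inhibits growth by half. TGI: total growth inhibition.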

For `COC(=O)CC1CC2(C(=O)OC)c3[nH]c4ccccc4c3CCN2C1=O` (stereo not given), the TGI in the assay on A549 NSCLC, with HOP-92 NSCLC, in the assay on HT29 colon, with NCI-H460 lung, with OVCAR-8 ovarian and in the assay with SF-268 CNS was above 100 µM throughout. Also, the TGI with SK-OV-3 ovarian and with U251 CNS was above 100 µM each time.
As for `Cc1ccc(NC(=O)C(=O)Cc2cccc[n+]2[O-])cc1C`, the TGI in the assay on A549 NSCLC, in the assay with HT29 colon, in the assay with NCI-H460 lung, in the assay with OVCAR-8 ovarian, in the assay with SF-268 CNS and with SK-OV-3 ovarian was above 100 µM in each case. The compound further came in with a TGI in the assay on U251 CNS above 100 µM.
In the case of `NC(N)=NCCCC(NC(=O)c1c2ccccc2nc2ccccc12)C(=O)O` (stereo not given), the TGI in the assay with A549 NSCLC, in the assay on DU-145 prostate, in the assay with HOP-92 NSCLC, in the assay on HT29 colon, in the assay on MDA-N and in the assay on NCI-H460 lung was above 100 µM in each case. The TGI in the assay with OVCAR-8 ovarian, in the assay on SF-268 CNS, with SK-OV-3 ovarian and in the assay on U251 CNS was above 100 µM in each case.
Turning to `N#Cc1c(N)nc(Sc2ccccc2N)c(C#N)c1-c1ccccc1`, the TGI in the assay on A549 NSCLC was above 100 µM; in the assay on DU-145 prostate, 52.3 µM; in the assay with HOP-92 NSCLC, 64.3 µM; with HT29 colon it was above 100 µM; with NCI-H460 lung, 50.6 µM; in the assay with OVCAR-8 ovarian it was 75 µM. Also, the TGI with SF-268 CNS stood at 75.3 µM; in the assay on U251 CNS, 60.2 µM.
`CC1=CCN(c2ccccn2)OC1c1ccccc1` (stereo not given): the TGI with A549 NSCLC, in the assay on HT29 colon, in the assay on NCI-H460 lung, with OVCAR-8 ovarian, with SF-268 CNS and in the assay with SK-OV-3 ovarian was above 100 µM throughout. In the assay on U251 CNS, the TGI is above 100 µM.
Consider `Cc1nc(Cc2n[nH]c(C)n2)n[nH]1`, for which the TGI in the assay on A549 NSCLC, with DU-145 prostate, with HOP-92 NSCLC, with HT29 colon, in the assay on MDA-N and with OVCAR-8 ovarian was above 100 µM throughout. Also, the TGI in the assay with SF-268 CNS, with SK-OV-3 ovarian and with U251 CNS was above 100 µM in each case.
Regarding `O=C(O)CCC1NC(/C(=C/c2ccccc2O)NC(=O)c2ccccc2)OC1=O` (stereo not given), the TGI in the assay on A549 NSCLC, with DU-145 prostate, in the assay with HOP-92 NSCLC, in the assay on HS 578T breast, in the assay with HT29 colon and in the assay on NCI-H460 lung was above 100 µM each time. For the same compound, the TGI in the assay on OVCAR-8 ovarian, with SF-268 CNS, in the assay on SK-OV-3 ovarian and in the assay with U251 CNS was above 100 µM in each case.
In the case of `Cc1ccccc1Nc1nc2ccccc2nc1NS(=O)(=O)c1ccccc1`, the TGI in the assay with A549 NSCLC, in the assay on HOP-92 NSCLC, in the assay with HS 578T breast, in the assay on HT29 colon, in the assay on NCI-H460 lung and in the assay with OVCAR-8 ovarian was above 100 µM throughout. The TGI with SF-268 CNS, in the assay on SK-OV-3 ovarian and with U251 CNS was above 100 µM throughout.
Turning to `Cn1c(NC(=O)NC23CC4CC(CC(C4)C2)C3)nc2ccccc21`, the TGI in the assay on A549 NSCLC was above 100 µM; in the assay with HOP-92 NSCLC, 90.6 µM; in the assay with HT29 colon it was above 100 µM; in the assay with NCI-H460 lung it was above 100 µM; in the assay with OVCAR-8 ovarian, above 100 µM; in the assay with SF-268 CNS, above 100 µM. Also, the TGI is 51.8 µM in the assay with SK-OV-3 ovarian and above 100 µM in the assay with U251 CNS.
`CC(C)=CC(=O)c1c(C(=O)O)nc2ccccc2[n+]1[O-]`: the TGI in the assay on A549 NSCLC, with HOP-92 NSCLC, in the assay with HT29 colon, in the assay with NCI-H460 lung, in the assay with SF-268 CNS and in the assay on SK-OV-3 ovarian was above 100 µM each time. In the assay on U251 CNS, this compound yielded a TGI above 100 µM.
Take `CC[C@@]12CCC(=S)N(CCSc3ccccc3)[C@@H]1c1c(n(S(=O)(=O)c3ccc(OC)cc3)c3ccccc13)CC2`: the TGI with A549 NSCLC, in the assay with DU-145 prostate, with HOP-92 NSCLC, in the assay with HS 578T breast, in the assay on HT29 colon and with NCI-H460 lung was above 100 µM in each case. Further, the TGI in the assay on OVCAR-8 ovarian, with SF-268 CNS, in the assay on SK-OV-3 ovarian and in the assay with U251 CNS was above 100 µM throughout.
As for `O=CC1=CCC2c3[nH]c4ccccc4c3CCN2C1` (stereo not given), the TGI is above 396 µM in the assay with A549 NSCLC; above 396 µM in the assay on HOP-92 NSCLC; 273 µM in the assay with HT29 colon; above 396 µM with NCI-H460 lung; above 396 µM in the assay with OVCAR-8 ovarian; above 396 µM in the assay with SF-268 CNS. Also, the TGI with SK-OV-3 ovarian was above 396 µM; in the assay on U251 CNS, 195 µM.
As for `CC(CC=O)Nc1nn2c(=O)c3ccccc3nc2s1` (stereo not given), the TGI with A549 NSCLC, in the assay on DU-145 prostate, in the assay on HOP-92 NSCLC, with HS 578T breast, in the assay with HT29 colon and with NCI-H460 lung was above 100 µM throughout. Also, the TGI with OVCAR-8 ovarian, in the assay on SF-268 CNS, with SK-OV-3 ovarian and in the assay with U251 CNS was above 100 µM throughout.
Take `COC1OC(C(=O)O)C2OC(C)(C)OC12` (stereo not given): the TGI in the assay with A549 NSCLC, in the assay with DU-145 prostate, in the assay on HOP-92 NSCLC, with HT29 colon, in the assay on MDA-N and in the assay on NCI-H460 lung was above 100 µM throughout. The TGI in the assay with OVCAR-8 ovarian, in the assay with SF-268 CNS, in the assay on SK-OV-3 ovarian and in the assay with U251 CNS was above 100 µM each time.
As for `COc1ccc(C23OCC(Cc4cc(OC)c(OC)cc42)C3CO)cc1OC` (stereo not given), the TGI in the assay on A549 NSCLC, in the assay on DU-145 prostate, in the assay with NCI-H460 lung, in the assay with SK-OV-3 ovarian and in the assay on U251 CNS was above 100 µM each time.
For `O=c1[nH]c2ccc([N+](=O)[O-])cc2nc1/C(=N/Nc1ccccc1)C(O)c1ccco1` (stereo not given), the TGI in the assay with A549 NSCLC, with HOP-92 NSCLC, with HT29 colon, with NCI-H460 lung, in the assay on OVCAR-8 ovarian and in the assay on SF-268 CNS was above 100 µM throughout. Further, the TGI in the assay on SK-OV-3 ovarian and in the assay on U251 CNS was above 100 µM throughout.
Consider `CC(C)=CCCC1(C)C2COC(=O)C21` (stereo not given), for which the TGI is above 100 µM with DU-145 prostate; > 100 µM and 97.3 µM with HOP-92 NSCLC; above 100 µM with HT29 colon; above 100 µM in the assay with MDA-N; > 100 µM and 34.1 µM with NCI-H460 lung; above 100 µM in the assay on SF-268 CNS. Moreover, the TGI in the assay on SK-OV-3 ovarian and in the assay on U251 CNS was above 100 µM in each case. Also, the GI50 is > 100 µM and 34.2 µM with HOP-92 NSCLC; > 100 µM and 31.7 µM in the assay on MDA-N; > 100 µM and 19.3 µM with NCI-H460 lung; > 100 µM and 43.5 µM in the assay on U251 CNS.
Consider `CN(/N=C\c1ccc2ccccc2c1)C1=NCCCN1`, for which the TGI in the assay on A549 NSCLC is 24.7 µM; in the assay with DU-145 prostate it was above 100 µM; with HOP-92 NSCLC it was 14.5 µM; with HS 578T breast, 42.1 µM; in the assay with HT29 colon, 31.1 µM; in the assay on NCI-H460 lung, 20.3 µM. Moreover, the TGI is above 100 µM in the assay on OVCAR-8 ovarian, 60.2 µM in the assay with SF-268 CNS, 98.3 µM in the assay with SK-OV-3 ovarian and 96.6 µM with U251 CNS.
As to `O=C(O)/C=C/c1ccncc1`, the TGI in the assay with HOP-92 NSCLC, in the assay on HT29 colon, with NCI-H460 lung, in the assay on OVCAR-8 ovarian, in the assay on SF-268 CNS and in the assay on SK-OV-3 ovarian was above 100 µM in each case. The compound further yielded a TGI in the assay with U251 CNS of 14 µM.
Consider `O=C(c1ccccc1)c1cc(Cl)ccc1NCn1nnc2ccccc21`, for which the TGI in the assay on A549 NSCLC, with HOP-92 NSCLC, with HT29 colon, with NCI-H460 lung, in the assay with OVCAR-8 ovarian and in the assay on SK-OV-3 ovarian was above 100 µM throughout. Also, the TGI in the assay on U251 CNS is above 100 µM.
Regarding `Cc1cc(C)n2c(nc3ccccc32)c1C#N`, the TGI was above 100 µM with A549 NSCLC; above 100 µM with DU-145 prostate; 79.8 µM with HOP-92 NSCLC; above 100 µM in the assay with HT29 colon; above 100 µM in the assay on MDA-N; above 100 µM in the assay with OVCAR-8 ovarian. Also, the TGI with SK-OV-3 ovarian and with U251 CNS was above 100 µM each time.
`CC[C@]1(Cc2ccc(OC)c(OC)c2)C=[N+]([O-])O[C@H](OC2CCCC2(c2ccccc2)c2ccccc2)[C@@H]1OC(=O)C(C)(C)C` (stereo not given in full): the TGI in the assay on A549 NSCLC is above 36.6 µM; in the assay with DU-145 prostate it was 4.45 µM; with HOP-92 NSCLC it was 18.2 µM; in the assay on HS 578T breast it was 28.7 µM; with HT29 colon, 4.49 µM; with NCI-H460 lung it was 6.92 µM. In addition, the TGI is above 32.5 µM in the assay on SF-268 CNS, above 86.1 µM in the assay on SK-OV-3 ovarian and above 55.6 µM in the assay with U251 CNS.
For `C(=C\c1c2oc(-c3ccccc3)cc(-c3ccccc3)c-2c2ccccc12)/C=C1\c2ccccc2-c2c(-c3ccccc3)cc(-c3ccccc3)[o+]c21`, the TGI in the assay with A549 NSCLC, in the assay on HOP-92 NSCLC, in the assay with HT29 colon, in the assay with NCI-H460 lung, in the assay with OVCAR-8 ovarian and in the assay on SF-268 CNS was above 100 µM in each case. Further, the TGI in the assay on SK-OV-3 ovarian and in the assay on U251 CNS was above 100 µM each time.
